Data taken from patent US9115137B2, “2,3,4,5-tetrahydro-1H-pyrido[4,3-B]indole compounds and methods of use thereof” (priority 2008, dated 2015).
Read-outs that look alike come from different tables or passages of the source.

Columns and labels:
[1] = biological target: T1, human recombinant adrenergic α2A receptor (Homo sapiens, UniProt P08913); assay: Adrenergic α2A radioligand binding ([3H]MK-912); details: read-out: Adrenergic (1 μM) α2A, percent inhibition of specific binding
T1 construct: expressed in transfected cells; host or cells: insect Sf9 cells
T1 sequence (P08913 1-465): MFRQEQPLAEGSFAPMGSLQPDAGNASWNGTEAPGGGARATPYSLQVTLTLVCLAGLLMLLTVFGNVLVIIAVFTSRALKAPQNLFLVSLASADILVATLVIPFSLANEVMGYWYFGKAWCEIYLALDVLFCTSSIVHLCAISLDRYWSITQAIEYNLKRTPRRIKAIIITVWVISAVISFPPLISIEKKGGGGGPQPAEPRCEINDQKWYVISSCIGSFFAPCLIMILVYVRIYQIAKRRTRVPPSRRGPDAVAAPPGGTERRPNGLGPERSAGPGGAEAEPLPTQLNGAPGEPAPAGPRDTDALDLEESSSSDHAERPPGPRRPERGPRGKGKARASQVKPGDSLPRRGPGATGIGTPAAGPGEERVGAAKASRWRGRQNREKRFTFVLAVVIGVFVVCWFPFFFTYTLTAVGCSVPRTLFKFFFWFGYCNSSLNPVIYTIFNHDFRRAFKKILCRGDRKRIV
Protocol: To evaluate in radioligand binding assays the activity of compounds of the invention, human recombinant adrenergic α2A receptor expressed in insect Sf9 cells (Uhlen S et al. J Pharmacol Exp Ther. 271:1558, 1994) in a modified Tris-HCl buffer (50 mM Tris-HCl, pH 7.4, 12.5 mM MgCl2, 2 mM EDTA) was used. Compounds of invention were incubated with 1 nM [^3H]MK-912 for 60 minutes at 25° C. MK912 is (2S-trans)-1,3,4,5′,6,6′,7,12b-octahydro-1′,3′-dimethyl-spiro[2H-benzofuro[2,3-a]quinolizine-2,4′(1′H)-pyrimidin]-2′(3′H)-one hydrochloride Non-specific binding was estimated in the presence of 10 μM WB-4101 (2-(2,6-Dimethoxyphenoxyethyl)aminomethyl-1,4-benzodioxane hydrochloride). Receptor proteins were filtered and washed, the filters were then counted to determine [^3H]MK-912 specifically bound. Compounds were screened at 1 μM or lower, using 1% DMSO as vehicle. Biochemical assay results are presented as the percent inhibition of specific binding in Table 6.

[2] = biological target: T2, human recombinant serotonin (5-Hydroxytryptamine) 5-HT2C receptor (Homo sapiens, UniProt P28335); assay: Serotonin 5-HT2C radioligand binding ([3H]Mesulergine); details: read-out: Serotonin (1 μM) 5-HT2C, percent inhibition of specific binding
T2 construct: expressed in transfected cells; host or cells: CHO-K1 cells
T2 sequence (P28335 33-458): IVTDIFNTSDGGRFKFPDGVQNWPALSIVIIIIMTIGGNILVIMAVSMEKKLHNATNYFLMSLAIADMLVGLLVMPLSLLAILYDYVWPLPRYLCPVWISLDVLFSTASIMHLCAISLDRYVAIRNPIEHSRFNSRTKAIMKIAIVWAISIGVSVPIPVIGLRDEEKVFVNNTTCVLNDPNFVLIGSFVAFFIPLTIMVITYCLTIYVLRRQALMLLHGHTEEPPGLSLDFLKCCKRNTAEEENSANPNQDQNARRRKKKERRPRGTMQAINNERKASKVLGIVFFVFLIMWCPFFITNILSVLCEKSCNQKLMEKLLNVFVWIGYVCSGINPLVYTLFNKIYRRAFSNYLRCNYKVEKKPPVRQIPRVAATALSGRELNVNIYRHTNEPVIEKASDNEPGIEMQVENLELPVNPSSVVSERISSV
Protocol: To evaluate in radioligand binding assays the activity of compounds of the invention, human recombinant serotonin (5-Hydroxytryptamine) 5-HT2C receptor expressed in Chinese hamster ovary (CHO-K1) cells (Wolf, W. A. and Schutz, J. S., J. Neurochem. 69:1449, 1997) in a modified Tris-HCl buffer (50 mM Tris-HCl, pH 7.4, 0.1% Ascorbic Acid, 10 μM Pargyline) was used. Compounds of the invention were incubated with 1 nM [^3H]Mesulergine for 60 minutes at 25° C. Non-specific binding was estimated in the presence of 1 μM Mianserin. Receptor proteins were filtered and washed, the filters were then counted to determine [^3H]Mesulergine specifically bound. Compounds were screened at 1 μM or lower, using 1% DMSO as vehicle. Biochemical assay results are presented as the percent inhibition of specific binding in Table 7.

[3] = biological target: T3, human recombinant dopamine D2L receptor (Homo sapiens, UniProt P14416); assay: Dopamine D2L radioligand binding ([3H]Spiperone); details: read-out: Dopamine (1 μM) D2L, percent inhibition of specific binding
T3 construct: expressed in transfected cells; host or cells: CHO cells
T3 sequence (P14416 whole entry): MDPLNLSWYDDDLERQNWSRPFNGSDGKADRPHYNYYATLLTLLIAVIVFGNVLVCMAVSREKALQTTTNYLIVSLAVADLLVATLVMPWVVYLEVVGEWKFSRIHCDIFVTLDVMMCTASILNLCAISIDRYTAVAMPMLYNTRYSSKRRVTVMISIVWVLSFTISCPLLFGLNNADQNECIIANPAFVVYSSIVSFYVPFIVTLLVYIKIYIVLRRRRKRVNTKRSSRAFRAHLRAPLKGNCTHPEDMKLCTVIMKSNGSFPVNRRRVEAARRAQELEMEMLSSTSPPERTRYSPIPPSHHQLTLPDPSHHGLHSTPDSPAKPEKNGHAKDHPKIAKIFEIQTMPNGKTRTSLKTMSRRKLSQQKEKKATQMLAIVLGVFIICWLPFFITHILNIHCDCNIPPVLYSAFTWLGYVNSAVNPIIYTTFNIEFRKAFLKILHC
Protocol: To evaluate in radioligand binding assays the activity of compounds of the invention, human recombinant dopamine D2L receptor expressed in Chinese hamster ovary (CHO) cells (Grandy, D. K. et al. Proc. Natl. Acad. Sci. USA. 86:9762, 1989; Hayes, G. et al., Mol. Endocrinol. 6:920, 1992) in a modified Tris-HCl buffer (50 mM Tris-HCl, pH 7.4, 1.4 mM Ascorbic Acid, 0.001% BSA, 150 mM NaCl) was used. Compounds of the invention were incubated with 0.16 nM [^3H]Spiperone for 120 minutes at 25° C. Non-specific binding was estimated in the presence of 10 μM Haloperidol. Receptor proteins were filtered and washed, the filters were then counted to determine [^3H]Spiperone specifically bound. Compounds were screened at 1 μM or lower, using 1% DMSO as vehicle. Biochemical assay results are presented as the percent inhibition of specific binding in Table 6.

[4] = compound at 1 μM, insect Sf9 cells

| Structure (SMILES) | inhibition at 1 µM [1, 4] | inhibition at 1 µM ([2]; compound at 1 μM, CHO-K1 cells) | inhibition at 1 µM ([3]; compound at 1 μM, CHO cells) | inhibition at 1 µM [1] | inhibition at 1 µM [3] | inhibition at 1 µM [2] |
| --- | --- | --- | --- | --- | --- | --- |
| CCOC(=O)CCn1c2c(c3cc(C)ccc31)CN(C)CC2 [CD1, ethyl 3-(1,2,3,4-tetrahydro-2,8-dimethylpyrido[4,3-b]indol-5-yl)propanoate] | 62% | 93% | – | – | – | – |
| CCOC(=O)CCn1c2c(c3cc(Cl)ccc31)CN(C)CC2 [CD17, ethyl 3-(8-chloro-1,2,3,4-tetrahydro-2-methylpyrido[4,3-b]indol-5-yl)propanoate] | 87% | 96% | 22% | – | – | – |
| CN1CCc2c(c3cc(Cl)ccc3n2CC(=O)O)C1 [CD46, 2-(8-chloro-1,2,3,4-tetrahydro-2-methylpyrido[4,3-b]indol-5-yl)acetic acid] | 13% | 30% | 3% | – | – | – |
| Cc1ccc2c(c1)c1c(n2CCC(=O)O)CCN(C)C1 [CD47, 3-(1,2,3,4-tetrahydro-2,8-dimethylpyrido[4,3-b]indol-5-yl)propanoic acid] | 17% | 25% | 4% | – | – | – |
| CN1CCc2c(c3cc(Cl)ccc3n2CCC(=O)O)C1 [CD55, 3-(8-chloro-1,2,3,4-tetrahydro-2-methylpyrido[4,3-b]indol-5-yl)propanoic acid] | -2% | 11% | 3% | – | – | – |
| CCOC(=O)Cn1c2c(c3cc(C)ccc31)CN(C)CC2 [CD57, ethyl 2-(1,2,3,4-tetrahydro-2,8-dimethylpyrido[4,3-b]indol-5-yl)acetate] | 45% | 96% | 12% | – | – | – |
| Cc1ccc2c(c1)c1c(n2CC(=O)O)CCN(C)C1 [CD58, 2-(1,2,3,4-tetrahydro-2,8-dimethylpyrido[4,3-b]indol-5-yl)acetic acid] | -7% | -19% | 2% | – | – | – |
| Cc1ccc2c(c1)c1c(n2CC#N)CCN(C)C1 [CD61, 2-(1,2,3,4-tetrahydro-2,8-dimethylpyrido[4,3-b]indol-5-yl)acetonitrile] | 73% | 73% | – | – | – | – |
| Cc1ccc2c(c1)c1c(n2CCN)CCN(C)C1 [CD62, 2-(1,2,3,4-tetrahydro-2,8-dimethylpyrido[4,3-b]indol-5-yl)ethanamine] | 42% | 28% | 26% | – | – | – |
| C#CCn1c2c(c3cc(C)ccc31)CN(C)CC2 [CD73, 2,8-dimethyl-5-(prop-2-ynyl)-2,3,4,5-tetrahydro-1H-pyrido[4,3-b]indole] | 70% | 92% | – | – | – | – |
| CN1CCc2c(c3cc(Cl)ccc3n2CCCO)C1 [CD87, 3-(8-chloro-2-methyl-3,4-dihydro-1H-pyrido[4,3-b]indol-5(2H)-yl)propan-1-ol] | 79% | 79% | 10% | – | – | – |
| CN1CCc2c(c3cc(Cl)ccc3n2CCBr)C1 [CD88, 5-(2-bromoethyl)-8-chloro-2-methyl-2,3,4,5-tetrahydro-1H-pyrido[4,3-b]indole] | – | – | – | 80% | 27% | 84% |
| CN1CCc2c(c3cc(Cl)ccc3n2CCO)C1 [CD89, 2-(8-chloro-2-methyl-3,4-dihydro-1H-pyrido[4,3-b]indol-5(2H)-yl)ethanol] | 70% | 84% | 0% | – | – | – |
| Cc1ccc2c(c1)c1c(n2CCO)CCN(C)C1 [CD90, 2-(2,8-dimethyl-3,4-dihydro-1H-pyrido[4,3-b]indol-5(2H)-yl)ethanol] | 22% | 91% | -8% | – | – | – |
| Cc1ccc2c(c1)c1c(n2CCBr)CCN(C)C1 [CD91, 5-(2-bromoethyl)-2,8-dimethyl-2,3,4,5-tetrahydro-1H-pyrido[4,3-b]indole] | 86% | 98% | 15% | – | – | – |
| Cc1ccc2c(c1)c1c(n2CCC#N)CCN(C)C1 [CD92, 3-(2,8-dimethyl-3,4-dihydro-1H-pyrido[4,3-b]indol-5(2H)-yl)propanenitrile] | 76% | 61% | 3% | – | – | – |
| CN1CCc2c(c3cc(Cl)ccc3n2CCC#N)C1 [CD94, 3-(8-chloro-2-methyl-3,4-dihydro-1H-pyrido[4,3-b]indol-5(2H)-yl)propanenitrile] | 73% | 71% | 1% | – | – | – |
| CNC(=O)CCn1c2c(c3cc(C)ccc31)CN(C)CC2 [Compound 1, 3-(1,2,3,4-tetrahydro-2,8-dimethylpyrido[4,3-b]indol-5-yl)-N-methylpropanamide] | 18% | 20% | – | – | – | – |
| CCNC(=O)CCn1c2c(c3cc(C)ccc31)CN(C)CC2 [Compound 2, N-ethyl-3-(1,2,3,4-tetrahydro-2,8-dimethylpyrido[4,3-b]indol-5-yl)propanamide] | 35% | -5% | – | – | – | – |
| Cc1ccc2c(c1)c1c(n2CCC(=O)NC2CCCCC2)CCN(C)C1 [Compound 3, N-cyclohexyl-3-(1,2,3,4-tetrahydro-2,8-dimethylpyrido[4,3-b]indol-5-yl)propanamide] | 14% | 29% | – | – | – | – |
| Cc1ccc2c(c1)c1c(n2CCC(=O)NC2CCCC2)CCN(C)C1 [Compound 4, N-cyclopentyl-3-(1,2,3,4-tetrahydro-2,8-dimethylpyrido[4,3-b]indol-5-yl)propanamide] | 45% | 36% | – | – | – | – |
| CCOC(=O)CCCn1c2c(c3cc(C)ccc31)CN(C)CC2 [Compound 5, ethyl 4-(1,2,3,4-tetrahydro-2,8-dimethylpyrido[4,3-b]indol-5-yl)butanoate] | 74% | 96% | – | – | – | – |
| CCNC(=O)CCCn1c2c(c3cc(C)ccc31)CN(C)CC2 [Compound 6, N-ethyl-4-(1,2,3,4-tetrahydro-2,8-dimethylpyrido[4,3-b]indol-5-yl)butanamide] | 59% | 45% | – | – | – | – |
| Cc1ccc2c(c1)c1c(n2CCNC(=O)OCC(Cl)(Cl)Cl)CCN(C)C1 [Compound 8, 2,2,2-trichloroethyl 2-(1,2,3,4-tetrahydro-2,8-dimethylpyrido[4,3-b]indol-5-yl)ethylcarbamate] | 90% | 99% | – | – | – | – |
